Measurements published in patent publication US10221177B2 (HYDRA BIOSCIENCES, INC., priority 2014, dated 2019).

How the values were obtained:
human TRPA1 = human TRPA1 (Homo sapiens (Human), UniProt O75762); assay: In vitro inhibition of human TRPA1, whole cell patch configuration; format: cell-based; details: current activation 10 μM AITC, tested concentrations 320 pM to 3.2 μM, read-out: hTRPA1 IC50
In short: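 Compound antagonism measured from voltage ramps (±100 or ±80 mV, 400 ms, every 4 s from −40 mV), analysed at −80 and 80 mV, or at constant −60 mV. HEPES-buffered NaCl bath, pH 7.4, EGTA or 2 mM Ca2+; temperature set by perfusion, within ±2° C; no junction-potential correction.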

[1] = test system: formalin-induced pain behaviors in the rat; assay: Formalin-induced pain test (formalin model), duration of pain behaviors; format: in vivo
Procedure: Exemplary compounds of the invention were tested in the formalin-induced pain test reported by Dubuisson et al., Pain 1977 December; 4(2):161-74 (incorporated herein by reference in its entirety). Briefly, dilute formalin (50 μL of 3% formalin) was injected into the plantar surface of the hind paw of a rat. […] The individual responsible for counting the pain behaviors in a particular study was blinded to the treatment groups.
The initial phase (Phase I: 0-5 min) is thought to have a significant component that is dependent upon direct activation of afferent fibers by formalin and functional TRPA1 (McNamara et al., 2007).
Investigators studied oral administration of compounds of the invention at the doses presented in Table 3 on pain behaviors in the formalin model in the rat. Compounds were formulated as solutions in water with various solvents and excipients including dimethyl sulfoxide (DMSO), polyethylene glycol (15)-hydroxystearate (Solutol®, Sigma-Aldrich), caprylocaproyl macrogol-8 glyceride (Labrasol®, Sigma-Aldrich), polysorbate-80 (Tween®-80, Sigma-Aldrich), and polyoxyl 35 castor oil (Cremophor® EL, BASF Corp.); or suspensions in methylcellulose as indicated in Table 3. Animals were dosed orally with the vehicle, or compounds of the invention one hour prior to intraplantar formalin. […] A decrease over Vehicle indicates a positive result. P values, when indicated, indicate significance compared Vehicle.

[2] = test system: CFA-induced cold hypersensitivity of the hind paw; assay: CFA-induced pain test, cold hypersensitivity (cold plate paw withdrawal latency); format: in vivo; details: cold plate 1° C.; for Average PWL Post-Treatment / PWL Change: 1-2 hour pre-treatment; for Average PWL Post-CFA: baseline before dosing
Procedure: Embodiments of the invention may be efficacious in the treatment of inflammatory pain. Compounds of the invention were tested by the CFA-induced pain test method. Compounds were formulated as solutions in water with various solvents and excipients including dimethyl sulfoxide (DMSO), polyethylene glycol (15)-hydroxystearate (Solutol®, Sigma-Aldrich), caprylocaproyl macrogol-8 glyceride (Labrasol®, Sigma-Aldrich), polysorbate-80 (Tween®-80, Sigma-Aldrich), and polyoxyl 35 castor oil (Cremophor® EL, BASF Corp.); or suspensions in methylcellulose as indicated in Table 3 for oral delivery. Briefly, the hind paw was sensitized to cold temperature (allodynic) by administering 0.1 mL of Complete Freund's Adjuvant (CFA) to the right hind paw. Three days later, the time taken for the animal to lift its CFA-injected paw was recorded compared to its un-injected normal left hind paw. […] To avoid tissue damage the maximum cut-off time was 5 minutes. Animals that were allodynic (average PWL to the first three pain behaviors <150 seconds for the CFA-injected hind paw: ˜≥50% difference between the normal and CFA-injected paw) were included in the study and subsequently randomized across treatment groups. The following day, the animals were dosed orally under blinded conditions. Following the 1-2 hour pre-treatment time, the post-dose PWL readings were again taken. The efficacy of the drug treatment was assessed by comparing the PWL in the drug treatment animals to those animals that receive the vehicle. P values, when indicated, indicate significance compared Vehicle.

[3] = 1 mg/kg PO one hour prior to formalin, suspension in 0.5% methylcellulose
[4] = 3 mg/kg PO one hour prior to formalin, suspension in 0.5% methylcellulose
[5] = 10 mg/kg PO one hour prior to formalin, suspension in 0.5% methylcellulose
[6] = 1 mg/kg PO, suspension in 0.5% methylcellulose
[7] = 3 mg/kg PO, suspension in 0.5% methylcellulose
[8] = 10 mg/kg PO, suspension in 0.5% methylcellulose
[9] = 1 mg/kg PO one hour prior to formalin, solution in 4% DMSO, 5% Tween-80, 20% Cremophor EL, 71% water
[10] = 3 mg/kg PO one hour prior to formalin, solution in 4% DMSO, 5% Tween-80, 20% Cremophor EL, 71% water
[11] = 10 mg/kg PO one hour prior to formalin, solution in 4% DMSO, 5% Tween-80, 20% Cremophor EL, 71% water
[12] = 0.3 mg/kg PO, solution in 4% DMSO, 5% Tween-80, 20% Cremophor EL, and 71% water
[13] = 1 mg/kg PO, solution in 4% DMSO, 5% Tween-80, 20% Cremophor EL, and 71% water
[14] = 3 mg/kg PO, solution in 4% DMSO, 5% Tween-80, 20% Cremophor EL, and 71% water
[15] = group 0.3 mg/kg PO, solution in 4% DMSO, 5% Tween-80, 20% Cremophor EL, and 71% water
[16] = group 1 mg/kg PO, solution in 4% DMSO, 5% Tween-80, 20% Cremophor EL, and 71% water
[17] = group 3 mg/kg PO, solution in 4% DMSO, 5% Tween-80, 20% Cremophor EL, and 71% water

Sequence of human TRPA1 (O75762 whole entry, the tested form may be a part): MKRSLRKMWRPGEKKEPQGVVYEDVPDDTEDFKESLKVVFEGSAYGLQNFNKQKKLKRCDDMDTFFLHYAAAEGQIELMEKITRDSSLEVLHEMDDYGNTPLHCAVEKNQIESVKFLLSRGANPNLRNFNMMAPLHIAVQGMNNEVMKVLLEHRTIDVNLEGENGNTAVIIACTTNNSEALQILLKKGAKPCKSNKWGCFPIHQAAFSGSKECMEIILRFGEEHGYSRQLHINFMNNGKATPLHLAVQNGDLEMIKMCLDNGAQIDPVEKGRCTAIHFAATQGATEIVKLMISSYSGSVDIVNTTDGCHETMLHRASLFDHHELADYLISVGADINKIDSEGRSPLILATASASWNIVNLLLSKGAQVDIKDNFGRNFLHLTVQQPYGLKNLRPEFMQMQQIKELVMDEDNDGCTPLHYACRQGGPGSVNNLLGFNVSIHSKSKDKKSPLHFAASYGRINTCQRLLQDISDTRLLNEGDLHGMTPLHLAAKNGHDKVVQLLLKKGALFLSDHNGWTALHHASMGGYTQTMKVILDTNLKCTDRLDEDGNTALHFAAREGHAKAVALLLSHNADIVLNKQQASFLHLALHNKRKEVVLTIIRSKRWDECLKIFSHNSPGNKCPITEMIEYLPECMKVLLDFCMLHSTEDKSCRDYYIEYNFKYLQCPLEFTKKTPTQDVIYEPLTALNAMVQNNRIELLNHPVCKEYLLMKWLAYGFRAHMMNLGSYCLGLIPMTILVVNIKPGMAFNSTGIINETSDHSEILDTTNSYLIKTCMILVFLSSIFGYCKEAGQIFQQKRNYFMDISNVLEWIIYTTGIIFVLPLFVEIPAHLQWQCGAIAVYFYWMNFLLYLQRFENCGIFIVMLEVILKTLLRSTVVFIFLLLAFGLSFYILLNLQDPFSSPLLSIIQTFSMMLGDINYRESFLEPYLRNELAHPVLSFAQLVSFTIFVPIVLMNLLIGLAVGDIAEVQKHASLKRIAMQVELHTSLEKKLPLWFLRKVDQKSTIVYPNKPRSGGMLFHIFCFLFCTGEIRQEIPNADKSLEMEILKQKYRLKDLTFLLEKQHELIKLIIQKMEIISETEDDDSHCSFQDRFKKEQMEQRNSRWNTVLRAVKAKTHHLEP

SMILES	IC50 (human TRPA1) [nM]	Duration (0-2 Minutes) Average [1, 9] [s]	Duration (0-5 Minutes) Average [1, 9] [s]	Duration (0-2 Minutes) Average [1, 10] [s]	Duration (0-5 Minutes) Average [1, 10] [s]	Duration (0-2 Minutes) Average [1, 11] [s]	Duration (0-5 Minutes) Average [1, 11] [s]	Average PWL Post-Treatment [2, 12]	PWL Change [2, 12] [s]	Average PWL Post-Treatment [2, 13]	PWL Change [2, 13] [s]	Average PWL Post-Treatment [2, 14]	PWL Change [2, 14] [s]	Average PWL Post-CFA [2, 15]	Average PWL Post-CFA [2, 16]	Average PWL Post-CFA [2, 17]	also measured
Cc1noc(Cn2c(=O)c3c(ncn3[C@@H](C)C(=O)Nc3cccc(-c4cnc(C(F)(F)F)nc4)n3)n(C)c2=O)n1 [Compound 104, (S)-2-(3-methyl-1-((3-methyl-1,2,4-oxadiazol-5-yl)methyl)-2,6-dioxo-2,3-dihydro-1H-purin-7(6H)-yl)-N-(6-(2-(trifluoromethyl)pyrimidin-5-yl)pyridin-2-yl)propanamide]	15	98.5	167.9	70.9	140.0	56.6	128.9	190.0	84.9	295.1	190.9	281.7	176.8	105.1	104.2	104.9	
Cc1noc(Cn2c(=O)c3c(ncn3[C@@H](C)C(=O)Nc3cncc(-c4cnc(C(F)(F)F)nc4)n3)n(C)c2=O)n1 [Compound 160, (S)-2-(3-methyl-1-((3-methyl-1,2,4-oxadiazol-5-yl)methyl)-2,6-dioxo-2,3-dihydro-1H-purin-7(6H)-yl)-N-(6-(2-(trifluoromethyl)pyrimidin-5-yl)pyrazin-2-yl)propanamide]	20	68.6	167.3	78.1	232.0	42.5	150.4	173.0	64.7	269.6	161.5	253.6	146.2	108.2	108.1	107.5	
C[C@@H](C(=O)Nc1csc(-c2cnc(N3CC4CC4C3)nc2)n1)n1cnc2c1c(=O)n(CC#N)c(=O)n2C (stereo partly drawn) [Compound 34, (2S)—N-(2-(2-(3-azabicyclo[3.1.0]hexan-3-yl)pyrimidin-5-yl)thiazol-4-yl)-2-(1-(cyanomethyl)-3-methyl-2,6-dioxo-2,3-dihydro-1H-purin-7(6H)-yl)propanamide]	1					34.9	154.6	185.6	80.7	205.4	107.4	272.6	169.0	104.9	98.0	103.6	

Now from value to compound, other results behind:

IC50 (human TRPA1) [nM]	SMILES	Duration (0-2 Minutes) Average [1, 9] [s]	Duration (0-5 Minutes) Average [1, 9] [s]	Duration (0-2 Minutes) Average [1, 10] [s]	Duration (0-5 Minutes) Average [1, 10] [s]	Duration (0-2 Minutes) Average [1, 11] [s]	Duration (0-5 Minutes) Average [1, 11] [s]	Average PWL Post-Treatment [2, 12]	PWL Change [2, 12] [s]	Average PWL Post-Treatment [2, 13]	PWL Change [2, 13] [s]	Average PWL Post-Treatment [2, 14]	PWL Change [2, 14] [s]	Average PWL Post-CFA [2, 15]	Average PWL Post-CFA [2, 16]	Average PWL Post-CFA [2, 17]	also measured
3	CC(=O)Cn1c(=O)c2c(ncn2[C@@H](C)C(=O)Nc2csc(-c3ccc(N4CC5C(C4)C5(F)F)nc3)n2)n(C)c1=O (stereo partly drawn) [Compound 79, (2S)—N-(2-(6-(6,6-difluoro-3-azabicyclo[3.1.0]hexan-3-yl)pyridin-3-yl)thiazol-4-yl)-2-(3-methyl-2,6-dioxo-1-(2-oxopropyl)-2,3-dihydro-1H-purin-7(6H)-yl)propanamide]																Duration (0-2 Minutes) Average [1, 3]: 86.1 s; Duration (0-5 Minutes) Average [1, 3]: 169.8 s; Duration (0-2 Minutes) Average [1, 4]: 86.5 s; Duration (0-5 Minutes) Average [1, 4]: 151.1 s; Duration (0-2 Minutes) Average [1, 5]: 77.3 s; Duration (0-5 Minutes) Average [1, 5]: 142.5 s; Average PWL Post-Treatment [2, 6]: 140.2; PWL Change [2, 6]: 38.0 s; Average PWL Post-Treatment [2, 7]: 201.8; PWL Change [2, 7]: 99.6 s; Average PWL Post-Treatment [2, 8]: 231.5; PWL Change [2, 8]: 129.3 s; Average PWL Post-CFA ([2]; group 1 mg/kg PO, suspension in 0.5% methylcellulose): 102.2; Average PWL Post-CFA ([2]; group 3 mg/kg PO, suspension in 0.5% methylcellulose): 102.2; Average PWL Post-CFA ([2]; group 10 mg/kg PO, suspension in 0.5% methylcellulose): 102.3
4	CC(=O)Cn1c(=O)c2c(ncn2[C@@H](C)C(=O)Nc2cccc(-c3cnc(N4CC5C(C4)C5(F)F)nc3)n2)n(C)c1=O (stereo partly drawn) [Compound 25, (2S)—N-(6-(2-(6,6-difluoro-3-azabicyclo[3.1.0]hexan-3-yl)pyrimidin-5-yl)pyridin-2-yl)-2-(3-methyl-2,6-dioxo-1-(2-oxopropyl)-2,3-dihydro-1H-purin-7(6H)-yl)propanamide]	87.8	190.1	22.8	98.3	29.1	146.0	170.2	65.2	224.8	119.7	259.9	154.9	105.0	105.1	105.1	
6	CC(=O)Cn1c(=O)c2c(ncn2[C@@H](C)C(=O)Nc2cncc(-c3cnc(N4CC5C(C4)C5(F)F)nc3)n2)n(C)c1=O (stereo partly drawn) [Compound 74, (2S)—N-(6-(2-(6,6-difluoro-3-azabicyclo[3.1.0]hexan-3-yl)pyrimidin-5-yl)pyrazin-2-yl)-2-(3-methyl-2,6-dioxo-1-(2-oxopropyl)-2,3-dihydro-1H-purin-7(6H)-yl)propanamide]	94.8	169.0	78.3	172.9	62.3	152.6	160.9	69.9	271.3	181.0	273.2	182.3	91.1	90.4	90.9	
